In publication PMC5614982, “Impact of Gastric H^+/K^+-ATPase rs2733743 on the Intragastric pH-Values of Dexlansoprazole Injection in Chinese Subjects” (Frontiers in Pharmacology, 2017):
Marks after values point to notes of the source that are not given here.

Tested on: intragastric pH
Assay: 24-h intragastric pH monitoring after single intravenous dexlansoprazole in healthy Chinese subjects
Type: in vivo, human
Conditions: 30 mg iv
Description: Dexlansoprazole injection (30 mg per vial) used in the PK and PD study was manufactured by Nanjing Yoko Pharma Co., Ltd. (Nanjing, China). Subjects received an intravenous infusion of 20 or 30 mg dexlansoprazole injection in sterile saline solution (100 mL/h, 60 min). The study drug was administrated with an infusing pump (SA213, Lifepum, Beijing, China) and given through an intravenous catheter in the antecubital vein opposite to the one from which blood samples were taken.
An ambulatory pH recorder (Orion II, MMS, USA) with a disposable pH catheter (VersaFlex, MMS, USA) was used to monitor intragastric pH. The electrode was placed in water for at least 10 min and then calibrated using standard buffer solutions (pH 1.07 and 7.01) before intubation. Both calibration and intubation processes were conducted under the guidance of MMS Virtual Instructor Program. The catheter, trans nasally placed 10 cm under the lower esophageal sphincter, was identified by a sharp decrease in pH (Wang et al., [2010], [2011]). Subjects were intubated on baseline and the day of dosing at about 7:30 a.m., and the intragastric pH data were recorded continuously for 24 h from 8:00 a.m. Intragastric pH was sampled every second, and the data were stored in a MMS Database program (MMS, USA). The PD parameters including Median (pH), Mean (pH), TpH≥3 (%), TpH≥4 (%), TpH≥6 (%), TpH≥6, and AUC^pH−t were analyzed by the MMS Database program.
Median (pH) and mean (pH) were well-investigated in most studies, and the percentage time of pH ≥ 4 (or pH ≥ 4 holding time ratio) was the benchmark for predicting clinical efficacy of PPIs in treating acid-related diseases (Metz et al., [2009]). Novel parameter TpH≥6 (time to first gastric pH ≥ 6, min) and AUCτ 1-τ 2pH-t (area under pH-time curve from τ1 to τ2, pH·s) were defined to evaluate the velocity and extent of pharmacodynamics with more accuracy. All parameters were calculated and compared according to time periods of 0–24, 0–4, 4–10, 10–14, and 14–24 h post dosing.
The parameter AUCτ 1-τ 2pH-t was calculated as follows:
Where t represented the time duration measured by seconds, AUCτ 1-τ 210-t was the area between the pH line = 10 and the pH-time curve, which was generated by the MMS software.
Baseline-adjusted PD parameters were calculated as follows: for example, ΔAUC^pH−t = AUC^pH−t − AUC^pH−tbaseline, ΔMean (pH) = Mean (pH) − Mean (pH)^baseline, and ΔMedian (pH) = Median (pH) − Median (pH)^baseline.

[1] = CYP2C19 EMs, H+/K+-ATPase WT (n = 6), 0–4 h
[2] = CYP2C19 EMs, H+/K+-ATPase WT (n = 6), 0–24 h
[3] = CYP2C19 EMs, H+/K+-ATPase WT (n = 6), 14–24 h
[4] = H+/K+-ATPase Het (n = 10), 0–4 h

Structure (SMILES): Cc1c(OCC(F)(F)F)ccnc1C[S@@+]([O-])c1nc2ccccc2[nH]1 [dexlansoprazole]
- Mean (pH) [1]: 6.1 ± 0.5 pH
- Median (pH) [1]: 6.9 ± 0.5 pH
- TpH≥3(%) [1]: 80.8 ± 8.4%
- TpH≥4(%) [1]: 76.4 ± 9.4%
- TpH≥6(%) [1]: 66.9 ± 14.8%
- ΔMean (pH) [1]: 3.4 ± 0.7 pH
- ΔMedian (pH) [1]: 4.5 ± 0.7^b pH
- ΔTpH≥3(%) [1]: 51.7 ± 34.6%
- ΔTpH≥4 (%) [1]: 58.6 ± 15.0%
- ΔTpH≥6(%) [1]: 60.9 ± 12.6%
- Mean (pH) [2]: 5.6 ± 1.1 pH
- Median (pH) [2]: 5.8 ± 1.4 pH
- TpH≥3(%) [2]: 79.8 ± 16.2%
- TpH≥4(%) [2]: 73.1 ± 20.0%
- TpH≥6(%) [2]: 53.5 ± 23.6%
- ΔMean (pH) [2]: 2.4 ± 0.8^c pH
- ΔMedian (pH) [2]: 3.2 ± 1.0 pH
- ΔTpH≥3(%) [2]: 35.3 ± 10.3^c %
- ΔTpH≥4 (%) [2]: 41.0 ± 16.6^c %
- ΔTpH≥6(%) [2]: 43.2 ± 18.2%
- Mean (pH) [3]: 4.8 ± 1.8 pH
- Median (pH) [3]: 4.3 ± 1.7 pH
- TpH≥3(%) [3]: 62.4 ± 35.6%
- TpH≥4(%) [3]: 52.1 ± 41.3%
- TpH≥6(%) [3]: 34.4 ± 28.0%
- ΔMean (pH) [3]: 1.6 ± 0.9^c pH
- ΔMedian (pH) [3]: 2.3 ± 1.7 pH
- ΔTpH≥3(%) [3]: 38.5 ± 26.5^c %
- ΔTpH≥4 (%) [3]: 29.5 ± 29.9%
- ΔTpH≥6(%) [3]: 14.1 ± 12.6^c %
- Mean (pH) (CYP2C19 IM (n = 10), 0–4 h): 5.6 ± 2.2 pH
- Median (pH) (CYP2C19 IM (n = 10), 0–4 h): 6.2 ± 2.8 pH
- TpH≥3(%) (CYP2C19 IM (n = 10), 0–4 h): 66.9 ± 33.4%
- TpH≥4(%) (CYP2C19 IM (n = 10), 0–4 h): 63.6 ± 36.2%
- TpH≥6(%) (CYP2C19 IM (n = 10), 0–4 h): 56.6 ± 36.6%
- ΔMean (pH) (CYP2C19 IM (n = 10), 0–4 h): 3.3 ± 1.7 pH
- ΔMedian (pH) (CYP2C19 IM (n = 10), 0–4 h): 4.3 ± 2.5 pH
- ΔTpH≥3(%) (CYP2C19 IM (n = 10), 0–4 h): 56.9 ± 27.1%
- ΔTpH≥4 (%) (CYP2C19 IM (n = 10), 0–4 h): 56.2 ± 31.5%
- ΔTpH≥6(%) (CYP2C19 IM (n = 10), 0–4 h): 51.3 ± 33.5%
- Mean (pH) (CYP2C19 IM (n = 10), 0–24 h): 6.6 ± 0.9 pH
- Median (pH) (CYP2C19 IM (n = 10), 0–24 h): 7.0 ± 0.8 pH
- TpH≥3(%) (CYP2C19 IM (n = 10), 0–24 h): 89.6 ± 9.2%
- TpH≥4(%) (CYP2C19 IM (n = 10), 0–24 h): 85.7 ± 10.6%
- TpH≥6(%) (CYP2C19 IM (n = 10), 0–24 h): 67.8 ± 13.4%
- ΔMean (pH) (CYP2C19 IM (n = 10), 0–24 h): 3.7 ± 0.6 pH
- ΔMedian (pH) (CYP2C19 IM (n = 10), 0–24 h): 4.9 ± 0.8 pH
- ΔTpH≥3(%) (CYP2C19 IM (n = 10), 0–24 h): 65.3 ± 6.2%
- ΔTpH≥4 (%) (CYP2C19 IM (n = 10), 0–24 h): 70.0 ± 8.3%
- ΔTpH≥6(%) (CYP2C19 IM (n = 10), 0–24 h): 56.7 ± 6.4%
- Mean (pH) (CYP2C19 IM (n = 10), 14–24 h): 6.1 ± 0.9 pH
- Median (pH) (CYP2C19 IM (n = 10), 14–24 h): 6.2 ± 1.2 pH
- TpH≥3(%) (CYP2C19 IM (n = 10), 14–24 h): 88.9 ± 8.9%
- TpH≥4(%) (CYP2C19 IM (n = 10), 14–24 h): 80.9 ± 12.6%
- TpH≥6(%) (CYP2C19 IM (n = 10), 14–24 h): 50.7 ± 13.6%
- ΔMean (pH) (CYP2C19 IM (n = 10), 14–24 h): 2.7 ± 0.9 pH
- ΔMedian (pH) (CYP2C19 IM (n = 10), 14–24 h): 3.7 ± 0.9 pH
- ΔTpH≥3(%) (CYP2C19 IM (n = 10), 14–24 h): 60.8 ± 19.5%
- ΔTpH≥4 (%) (CYP2C19 IM (n = 10), 14–24 h): 55.6 ± 17.3%
- ΔTpH≥6(%) (CYP2C19 IM (n = 10), 14–24 h): 27.8 ± 14.7^c %
- Mean (pH) (CYP2C19 PM (n = 7), 0–4 h): 5.2 ± 1.1 pH
- Median (pH) (CYP2C19 PM (n = 7), 0–4 h): 5.9 ± 1.8 pH
- TpH≥3(%) (CYP2C19 PM (n = 7), 0–4 h): 73.7 ± 10.5%
- TpH≥4(%) (CYP2C19 PM (n = 7), 0–4 h): 64.8 ± 15.2%
- TpH≥6(%) (CYP2C19 PM (n = 7), 0–4 h): 47.7 ± 24.1%
- ΔMean (pH) (CYP2C19 PM (n = 7), 0–4 h): 3.5 ± 0.9 pH
- ΔMedian (pH) (CYP2C19 PM (n = 7), 0–4 h): 4.2 ± 1.8 pH
- ΔTpH≥3(%) (CYP2C19 PM (n = 7), 0–4 h): 69.8 ± 9.5%
- ΔTpH≥4 (%) (CYP2C19 PM (n = 7), 0–4 h): 63.2 ± 13.7%
- ΔTpH≥6(%) (CYP2C19 PM (n = 7), 0–4 h): 47.3 ± 23.7%
- Mean (pH) (CYP2C19 PM (n = 7), 0–24 h): 6.5 ± 1.1 pH
- Median (pH) (CYP2C19 PM (n = 7), 0–24 h): 6.7 ± 1.2 pH
- TpH≥3(%) (CYP2C19 PM (n = 7), 0–24 h): 89.0 ± 13.3%
- TpH≥4(%) (CYP2C19 PM (n = 7), 0–24 h): 85.0 ± 16.4%
- TpH≥6(%) (CYP2C19 PM (n = 7), 0–24 h): 72.2 ± 19.8%
- ΔMean (pH) (CYP2C19 PM (n = 7), 0–24 h): 4.1 ± 1.1^a pH
- ΔMedian (pH) (CYP2C19 PM (n = 7), 0–24 h): 4.8 ± 1.2 pH
- ΔTpH≥3(%) (CYP2C19 PM (n = 7), 0–24 h): 68.6 ± 15.3^a %
- ΔTpH≥4 (%) (CYP2C19 PM (n = 7), 0–24 h): 74.6 ± 16.6^a %
- ΔTpH≥6(%) (CYP2C19 PM (n = 7), 0–24 h): 68.8 ± 17.9^a %
- Mean (pH) (CYP2C19 PM (n = 7), 14–24 h): 6.1 ± 1.4 pH
- Median (pH) (CYP2C19 PM (n = 7), 14–24 h): 5.9 ± 2.0 pH
- TpH≥3(%) (CYP2C19 PM (n = 7), 14–24 h): 87.3 ± 22.7%
- TpH≥4(%) (CYP2C19 PM (n = 7), 14–24 h): 82.9 ± 26.0%
- TpH≥6(%) (CYP2C19 PM (n = 7), 14–24 h): 64.4 ± 25.6^a %
- ΔMean (pH) (CYP2C19 PM (n = 7), 14–24 h): 3.8 ± 1.3^a pH
- ΔMedian (pH) (CYP2C19 PM (n = 7), 14–24 h): 4.1 ± 1.9^a pH
- ΔTpH≥3(%) (CYP2C19 PM (n = 7), 14–24 h): 76.9 ± 20.0^a %
- ΔTpH≥4 (%) (CYP2C19 PM (n = 7), 14–24 h): 75.9 ± 22.4^a %
- ΔTpH≥6(%) (CYP2C19 PM (n = 7), 14–24 h): 59.0 ± 24.6^a^,^b %
- Mean (pH) [4]: 5.3 ± 2.0 pH
- Median (pH) [4]: 5.5 ± 2.5 pH
- TpH≥3(%) [4]: 70.6 ± 25.1%
- TpH≥4(%) [4]: 64.8 ± 28.6%
- TpH≥6(%) [4]: 50.5 ± 38.4%
- ΔMean (pH) [4]: 3.0 ± 1.2 pH
